Test results: US6410539B1, “Imidazole derivatives and their use as farnesyl protein transferase inhibitors” (Astrazenca UK Limited, priority 1997, dated 2002)

Tests used:
[1] = molecular target: T1, Farnesyl protein transferase (FPT) (Homo sapiens, UniProt P49354+P49356); assay: In-vitro farnesyl protein transferase assay (farnesylation of Ki-ras with radiolabelled farnesyl pyrophosphate); type: biochemical; conditions: "in the above test"; FPT partially purified from human placenta, substrate Kras (CVIM C-terminal sequence)
T1 construct: partially purified from human placenta by ammonium sulphate fractionation; from tissue; host or cells: human placenta
Protocol: The following stock solutions were used and the assays were conducted in 96 well plates: TRIS Buffer (500 mM TRIS, 50 mM MgCl2.6H2O, pH=8.0); Farnesyl pyrophosphate (6.4 mg/ml); Aprotinin (1.9 mg/ml); Ki-ras (0.5 mg/ml, stored at −80° C.); Acid ethanol (850 ml absolute ethanol+150 ml concentrated HCl).
Farnesyl protein transferase (FPT) was partially purified from human placenta by ammonium sulphate fractionation followed by a single Q-Sepharose™ (Pharmacia, Inc) anion exchange chromatography essentially as described by Ray and Lopez-Belmonte (Ray K P and Lopez-Belmonte J (1992) Biochemical Society Transactions 20 494-497). The substrate for FPT was Kras (CVIM C-terminal sequence). The cDNA for oncogenic val12 variant of human c-Ki-ras-2 4B was obtained from the plasmid pSW11-1 (ATCC). This was then subcloned into the polylinker of a suitable expression vector e.g. pIC147. The Kras was obtained after expression in the E. coli strain, BL21. […]
Assays were performed in 96 well plates as follows: 10 μl of test compound solution was added to each well. […] Precipitated protein was then collected onto glass fibre filter mats (B) using a Tomtec™ cell harvester and tritiated label was measured in a Wallac™1204 Betaplate scintillation counter. […]

IC50 [1] | melting point | SMILES
~2 nM | – | CSCCC(NC(=O)c1ccc(NC(Cn2ccnc2)c2ccc(F)cc2)cc1-c1ccccc1)C(=O)O [Example 6, (2S)-2-{2-Phenyl-4-[1-(4-fluorophenyl-2-imidazol-1-yl)ethylamino]benzoylamino}-4-methylsulfanylbutyric acid]
– | 94 to 98 °C | COC(=O)[C@H](CCSC)NC(=O)c1ccc(NC(Cn2ccnc2)c2ccc(F)cc2)cc1-c1ccc(F)cc1 (stereo partly drawn) [Example 2, Methyl (2S)-2-{2-(4-fluorophenyl)-4-[1-(4-fluorophenyl)-2-(imidazol-1-yl)ethylamino]benzoylamino}-4methylsulfanylbutyrate]
– | 115 to 120 °C | CSCC[C@H](NC(=O)c1cc(NC(Cn2ccnc2)c2ccc(F)cc2)ccc1CCc1ccc(F)cc1)C(=O)O (stereo partly drawn) [Example 8, (2S)-2-{5-[1-(4-Fluorophenyl)-2-(imidazol-1-yl)ethylamino]-2-(4-fluorophenethyl)benzoylamino}-4-methylsulfanylbutyric acid]
– | 130 to 135 °C | CSCC[C@H](NC(=O)c1cc(NC(Cn2ccnc2)c2ccc(F)cc2)ccc1Cc1ccc(F)cc1)C(=O)O (stereo partly drawn) [Example 10, (2S)-2-{5-[1(4-Fluorophenyl)-2-(imidazol-1-yl)ethylamino]-2-(4-fluorobenzyl)benzoylamino}-4-methylsulfanylbutyric acid]
